{"source": "patent US6956030B2", "about": "“Use of mometasone furoate for treating upper airway diseases” (Schering Corporation, priority 1994, dated 2005)", "key": {"plasma cortisol": {"tested_on": "plasma cortisol", "assay": "Phase I rising single-dose safety and tolerance study, metered dose inhaler, 24-hour plasma cortisol", "type": "in vivo, healthy male volunteers", "experimental": "Several Phase I studies were conducted using mometasone furoate formulated for delivery as a suspension in a pressurized metered dose inhaler (MDI). In a randomized, third-party blinded, placebo-controlled rising single-dose safety and tolerance study, aerosolized mometasone furoate was administered by a metered dose inhaler to eight healthy male volunteers. Doses were administered at 11 p.m. and plasma cortisol concentrations were measured during the following 24-hour period."}, "[1]": {"tested_on": "patients with seasonal allergic rhinitis", "assay": "Dose ranging safety and efficacy study, aqueous nasal spray, 4 weeks", "type": "in vivo", "settings": "nasal spray 50, 100, 200, 800 mcg/day", "text": "In treating allergic and non-allergic rhinitis, the aqueous suspension of mometasone furoate may be administered intranasally by inserting an appropriate device (such as the pump spray bottle used to deliver Vancenase AQ® Nasal Spray as well as the spray bottle disclosed in the Schering Corporation Industrial Design Deposit DM/026304 registered Jun. 1, 1993) into each nostril. Active drug is then expelled (nasal spray device) or could be nasally inhaled (sniffed) as a powder. Efficacy is generally assessed in a double blind fashion by a reduction in nasal symptoms (e.g., sneezing, itching, congestion, and discharge). Other objective measurements (e.g., nasal peak flow and resistance) can be used as supportive indices of efficacy.\nIn a dose ranging safety and efficacy study, the mometasone furoate aqueous nasal spray formulation at doses of 50 mcg/day, 100 mcg/day, 200 mcg/day, 800 mcg/day or placebo was administered to 480 patients with seasonal allergic rhinitis for 4 weeks."}, "[2]": {"tested_on": "symptomatic patients with seasonal allergic rhinitis", "assay": "Onset of clinical efficacy study, nasal spray, 14 days, total nasal symptom score", "type": "in vivo", "experimental": "The study lasted 14 days in length. Data from 201 patients were used for analysis. a. Signs and symptoms were individually scored by the patient on the diary card, and by the investigator or designee at Screening and Baseline (Day 1), Day 4, Day 8, and Day 15 after treatment. All symptoms (nasal and non-nasal) were rated by the investigator or designee according to the following scale: The overall condition of rhinitis was evaluated by the investigator or designee and patient at the same time as symptoms, and scored according to the following criteria: 3. Drug—Each patient was given a metered nasal pump spray bottle containing either an aqueous suspension of mometasone furoate or placebo. […] After the Baseline visit, each patient was instructed to enter into his/her diary the information about the time of onset of nasal relief and level of nasal symptom relief as no relief, slight, moderate, marked, or complete. At Baseline and each follow-up visit, the physician evaluated the following signs and symptoms of allergic rhinitis, scored as 0=none, 1=mild, 2=moderate, 3=severe. • a. NASAL SYMPTOMS • nasal discharge • congestion/stuffiness • sneezing • itching • b. […] At each follow-up visit post Baseline, the physician and patient evaluated the therapeutic response as 5=no relief, 4=slight relief, 3=moderate relief, 2=marked relief, 1=complete relief. After the Baseline visit, each morning and evening the patient completed a diary to assess the 8 signs and symptoms of allergic rhinitis as described above. The primary efficacy results are based on a survival analysis of the onset times of relief (defined as the first time patient experienced at least moderate relief of nasal symptoms) for the mometasone furoate nasal spray and placebo groups. In this analysis, patients reporting slight or no relief for the first 3 days after treatment were censored at Day 3. Also, results from the patient regular diary (by 15-day average) data were evaluated. Data from 201 patients were used in the survival analysis."}, "[3]": {"assay": "Aqueous suspension once-a-day in allergic rhinitis (summary statement)", "type": "in vivo", "text": "In treating allergic and non-allergic rhinitis, the aqueous suspension of mometasone furoate may be administered intranasally by inserting an appropriate device (such as the pump spray bottle used to deliver […]® Nasal Spray as well as the spray bottle disclosed in the Schering Corporation Industrial Design Deposit DM/026304 registered Jun. 1, 1993) into each nostril. Active drug is then expelled (nasal spray device) or could be nasally inhaled (sniffed) as a powder. Efficacy is generally assessed in a double blind fashion by a reduction in nasal symptoms (e.g., sneezing, itching, congestion, and discharge). Other objective measurements (e.g., nasal peak flow and resistance) can be used as supportive indices of efficacy. For treatment of allergic and/or inflammatory diseases of the lower airways and lung parenchyma especially diseases such as asthma, chronic obstructive pulmonary disease (“COPD”), granulomatus diseases of the lungs and lower airway passage, non-malignant proliferative disease of the lungs e.g., idiopathic pulmonary fibrosis, hypersensitivity pneumonitis and bronchopulmonary dysplasia the following dosage ranges of mometasone furoate may be used: […] Typically 2-4 mL of the aqueous suspension of mometasone furoate monohydrate may be placed in a plastic nebulizer container and the patient would inhale for 2-10 minutes."}, "[4]": {"assay": "Drug metabolism/clinical pharmacology study: absorption and excretion of total radioactivity after ^3H-MF by various routes", "type": "in vivo, normal healthy male volunteers", "experimental": "In addition, a single-dose absorption, excretion and metabolism study using 200 mcg of ^3H-mometasone furoate as the nasal spray formulation was conducted in 6 normal male volunteers. When systemic absorption (based on urinary excretion) was compared to an intravenously administered dose of ^3H-mometasone furoate, it was 8%.\nA drug metabolism and clinical pharmacology study was conducted by administering (by various routes) tritium-labeled mometasone furoate (“^3H-MF”) to 6 groups of 6 normal male volunteers in each group. Blood and urine samples were collected for measurement of total drug (including metabolites).\nThe objectives of these studies in male volunteers were to determine the absorption, metabolism and excretion of ^3H-labeled mometasone furoate (“^3H-MF”) following administration by oral swallow as a solution and as an aqueous suspension of the monohydrate, by oral inhalation as a suspension from a standard metered dose inhaler (MDI) and from a metered dose inhaler containing a spacer device (Gentlehaler), by nasal inhalation as an aqueous suspension of the mometasone furoate monohydrate from a nasal spray unit and by intravenous injection as a solution.\nThirty-six (n=6 per treatment group) normal healthy male volunteers between the ages of 19 and 40 yr. (average 29 yr.) having weights in accordance with current actuarial tables (+10%) were enrolled in these single dose studies. All subjects were determined to be in good health by their medical history, physical examinations, clinical and laboratory tests.\nPlasma, urine, expired air filters, Respirgard and fecal samples were collected and assayed for radioactivity content. The limit of quantitation (LOQ) for plasma radioactivity ranged from 0.103 to 0.138 ng eq/ml., except for the nasal spray treatment where the LOQ was 0.025 ng eq/ml. Selected plasma, urine and fecal samples were analyzed for metabolite profiles.\nPharmacokinetics—The mean (n=6) plasma concentrations of total radioactivity are illustrated in Summary FIG. 1 and the mean (n=6) pharmacokinetic parameters derived from total plasma radioactivity are presented in Table 2."}}, "data": [{"smiles": "C[C@@H]1C[C@H]2[C@@H]3CCC4=CC(=O)C=C[C@]4(C)[C@@]3(Cl)[C@@H](O)C[C@]2(C)[C@@]1(OC(=O)c1ccco1)C(=O)CCl", "note": "[mometasone furoate]", "values": [{"measurement": "reduction of 24-hour area under the curve plasma cortisol profile (AUC 0-24) compared to placebo", "setting": "plasma cortisol; single dose 1000 mcg by MDI at 11 p.m.", "value": 13, "unit": "%"}, {"measurement": "reduction of 24-hour area under the curve plasma cortisol profile (AUC 0-24) compared to placebo", "setting": "plasma cortisol; single dose 2000 mcg by MDI at 11 p.m.", "value": 23, "unit": "%"}, {"measurement": "reduction of 24-hour area under the curve plasma cortisol profile (AUC 0-24) compared to placebo", "setting": "plasma cortisol; single dose 4000 mcg by MDI at 11 p.m.", "value": 36, "unit": "%"}, {"measurement": "efficacy relative to placebo", "setting": "[1]", "value": "effective relative to placebo"}, {"measurement": "tolerability", "setting": "[1]", "value": "well tolerated"}, {"measurement": "reduction in total nasal symptom score from baseline", "setting": "[2]; morning & evening averaged diary, 15-days average", "value": "statistically significantly higher than that for the placebo group"}, {"measurement": "median onset time to relief (at least moderate relief of nasal symptoms)", "setting": "[2]; nasal spray 200 mcg once-a-day, survival analysis, placebo 72 hours, log-rank p<0.001", "value": 35.9, "unit": "h"}, {"measurement": "patients who recorded slight or no relief (censored) at Day 3", "setting": "[2]; of 101 patients, placebo 50 of 100", "value": 24, "unit": "patients"}, {"measurement": "safety and efficacy in allergic rhinitis", "setting": "[3]; 25 up to 1600 micrograms once-a-day", "value": "safe and effective"}, {"measurement": "dose dependence of treatment effect", "setting": "[3]; once-a-day", "value": "no improvement in treatment is typically found above 400 micrograms a day"}, {"measurement": "safety and tolerability", "setting": "[4]; all dosage forms, single dose", "value": "safe and well tolerated"}, {"measurement": "bioavailability", "setting": "[4]; male, human, plasma, inhaled or intranasal, 200 ug, nasal spray 200 mcg, single dose, read-out: bioavailability of mometasone furoate", "value": "< 1", "unit": "%"}, {"measurement": "parent drug which reaches the bloodstream from the gastrointestinal tract", "setting": "[4]; swallowed as oral suspension or by oral or nasal inhalation", "value": "less than 1%"}]}]}
